The subject of assay [1] is breast cancer cell line (MCF-7). Details: method as in PMID 20627597. Particulars: cited from earlier work.
Another assay relates to HeLa. Details: method as in PMID 27159418. Particulars: cited from earlier work.
The test system of assay [2] is human lung cancer cell (A549). In words: MTT cytotoxicity assay, A549. The class given is cell-based. As to conditions: for Selectivity Index A549: HFL-1 vs A549; for IC50: Homo sapiens, MTT, 24 h treatment, A549. Here is the method: (§1) The American type culture collection (ATCC, USA) provided human lung cancer cell line (A549), cervical cancer cell line (HeLa), and human primary normal lung cells (HFL-1) for this investigation. In a water-jacketed cell culture incubator, all of these cell types were cultured according to conventional culture conditions at 37 °C with 5% CO2. These cells were cultured in appropriate cell culture media. A549 cells were grown in DMEM media with 2 mM glutamine, HeLa cells were grown in Eagle’s minimum essential medium (EMEM) as recommended, whereas HFL-1 cells were also grown in F-12K. Fetal bovine serum 10% (FBS) was added to the entire medium. At a rate of 8000 cells were seeded in triplicate in a single 96-well plate for the MTT technique of cell death investigation. […] After the treatment period was finished, the media was removed, and each well was gently washed three times with PBS to clear any remaining residue just before the experiment. […] The plates were incubated at 37 °C for 4 h after the MTT was added. We used DMSO to remove crystals after the incubation period was completed. A hybrid multi-mode plate reader (BioTek, USA) with a microplate reader was used to measure absorbance at 570 nm. The percentage inhibition was calculated using eq 1: [drawing 1] 1 where ODtreated is the mean optical density (OD) of the treated cells and ODcontrol is the OD of the vehicle control cells (negative control).
(§2) With all of the experimental drugs, we conducted the MTT assay three times. Prism8 software (GraphPad) was used to determine the IC50 values of the various drugs, which were then expressed as a drug concentration (μM).
For orientation: Tetrazolium assays rely on reduction of a dye to a coloured formazan, in cell work by metabolically active cells.

Assay [3] is described as follows: DPPH radical scavenging antioxidant assay. Particulars: 1 h incubation in the dark. Here is the method:
The antioxidant activity of the 3a and 3h was determined using the DPPH ([…]) radical scavenging technique, as reported.[60],[73] In methanol, the DPPH radical has a purple color and has a strong absorption band with a maximum of 517 nm. Compound concentrations ranging from 1 to 4 μM were mixed with DPPH at a concentration of 10 μM. The mixtures were properly mixed and then incubated at room temperature for 1 h in the dark. The standard reference was ascorbic acid. As a control, DPPH in methanol was utilized. The % of DPPH radical scavenged was used to calculate the antioxidant activity of the compounds, which was calculated using eq 5: [drawing 5] 5 where Acontrol = DPPH absorbance; Asample = sample with DPPH absorbance.
Background: Loss of DPPH colour is used to gauge radical scavenging.

A further assay has as its system A549 cells. In words: Annexin V-FITC/PI flow cytometry apoptosis assay. The format is cell-based, human. Particulars: 4 μM, 24 h, control 11.41%. Here is the method: We used flow cytometry analysis on A549 and HeLa cells for the quantitative apoptosis assay. As previously stated, cells were cultivated at 1.0 × 10^5 cells/ml and plated in 24-well culture plates (Corning) for 24 h. Cells were cultured for further 24 h after being treated with 4 μm of target drugs 3a and 3h. For analysis, the medium was discarded and cells were washed briefly in PBS, and then, the trypsinization protocol was carried out. Furthermore, cells were suspended in PBS and stained with annexin in V-FITC/PI according to the supplier technique (Sigma, USA, catalogue number: APOAF-20TST). After adding the reagents, the cells were allowed to incubate for 30 min at room temperature before being analyzed in PBS. The analysis was conducted on a BD FACS Accuri (BD Biosciences, USA), and the results were analyzed using FlowJo software (BD Biosciences, USA).[42]
In general terms: Flow cytometry measures light scatter and fluorescence of single cells or particles in a stream.

Assay [4] relates to human primary normal lung cells (HFL-1). In words: MTT cytotoxicity assay, HFL-1. As to conditions: HFL1, 24 h treatment. The class given is cell-based. As to the method: as §1, §2
The next assay has as its system EB-DNA complex (Ct-DNA). As to the kind of experiment: Ethidium bromide dye displacement assay. The format is binding. Particulars: quenching of EB-DNA fluorescence. An excerpt: Competitive fluorescence binding experiments utilizing ethidium bromide, a standard intercalation indicator, were used to evaluate the degree of molecular binding interaction mechanism of an active drug with Ct-DNA. […] The observable changes in the EB–DNA adduct’s emission spectrum as a function of quencher addition are particularly valuable for researching compound–DNA interactions. Fluorescence measurements were done in Tris-buffer at a 515 nm excitation wavelength in the range of 530–700 nm. Slit widths for both emission and excitation were set at about 10 nm.[54],[69]

The test system of assay [5] is human cervical cancer cell (HeLa). In words: MTT cytotoxicity assay, HeLa. The format is cell-based. Particulars: for Selectivity Index HeLa: HFL-1 vs HeLa; for IC50: Homo sapiens, MTT, 24 h treatment, HeLa. Here is the method: as §1, §2
Assay [6] has as its system Ct-DNA. In words: Fluorescence emission titration. The format is binding. As to conditions: DNA 10 μM, compound 10–80 μM. As to the method: Drug interactions with Ct-DNA have been studied using fluorescence assays. The experiments were achieved by varying drug concentration from 10 to 80 μM while keeping the concentration of DNA (10 μM) constant. Before making emission observation, the synthesized compound was incubated for 3 min with mixing DNA, after which emission titration was collected in Tris-buffer (pH 7.4) excitation at wavelength 260 nm, and the quenching results were analyzed using the Stern–Volmer equation (eq 3): [drawing 3] 3 Slit width has been kept constant at 10 nm during emission and excitation. The titration experiments were repeated three times (n = 3) to ensure consistent results.[50]−[52]

In assay [7] the test system is Ct-DNA. In words: Cyclic voltammetry. The format is binding. Particulars: Tris-buffer, 100 mV s^–1, DNA 10–40 μM. As to the method: Using this experiment, a drug–DNA binding interaction has also been investigated. The solution’s pH was maintained before analysis, and the entire analytical equipment was built at 25 °C with a constant potential of 100 mV s^–1 scan rate and a voltage range of −1 to +1 V. The spectra of a test compound (60 μL) were recorded using a screen-printed electrode (SPE). These experiments were carried out in a 1:1 ferri/ferrocyanide solution ratio. Various concentrations of Ct-DNA (Tris-buffer) were used to further evaluate test compounds 3a and 3h. The working electrode is made of the test compound, whereas the counter and reference electrodes are made of gold-coated copper. Binding constants were obtained using eq 4: [drawing 4] 4 where I0 and I are the peak currents of compound and compound–DNA complexes, respectively.[56]

The values that follow come from paper PMC9260921, “Design and Synthesis of Carbothioamide/Carboxamide-Based Pyrazoline Analogs as Potential Anticancer Agents: Apoptosis, Molecular Docking, ADME Assay, and DNA Binding Studies” (ACS Omega, 2022).

Molecules are shown by their SMILES. Values after ≈ are worked out from the molar mass of the structure shown.

In the case of `COc1ccc(C2CC(c3ccc(C)c(C)c3)=NN2C(N)=S)cc1` (stereo not drawn) [Compound 1], the IC50 (usually the concentration needed to halve the response being measured) in assay [1] was 80 nM.

Turning to `COc1cc(C2=NN(C(N)=O)C(c3cn(C)c4ccc(Br)cc34)C2)cc(OC)c1OC` (stereo not drawn) [Compound 2], the IC50 in the assay on HeLa is 210 nM.

Take `COc1cccc(C2=NN(C(N)=O)C(c3cn(C)c4ccc(Br)cc34)C2)c1` (stereo not drawn) [Compound 3]: the IC50 in the assay on HeLa was 250 nM.

Take `CN(C)c1ccc(C2CC(c3ccc(Cl)cc3)=NN2C(N)=S)cc1` (stereo not drawn) [Compound 3a]: in assay [2], the “Selectivity Index A549” value was 8.4 and the IC50 was 13.5 ± 0.17 µM. In addition, the “IC50 DPPH radical scavenging” value in assay [3] is 0.132 ± 0.012 µg/mL (≈ 0.368 µM). In the assay with A549 cells, the “cell death (sum of Q1+Q2+Q3)” value is 25.86%. The compound further yielded a half-maximal inhibitory concentration (IC50) in assay [4] of 114.5 ± 0.01 µM. In the assay on EB-DNA complex (Ct-DNA), the “Stern–Volmer constant KSV (EtBr displacement)” value is on record as 1.84 × 10^4 M^–1. In assay [5], the “Selectivity Index HeLa” value was 6.5 and the 50% inhibitory concentration (IC50) worked out at 17.52 ± 0.09 µM. Besides, the “Stern–Volmer constant KSV (emission titration)” value in the assay on Ct-DNA [6] was 5.80 × 10^3 M^–1. Also, the “binding constant K (cyclic voltammetry)” value in the assay with Ct-DNA [7] is reported as 1.25 × 10^4.

Consider `CN(C)c1ccc(C2CC(c3cccc(Br)c3)=NN2C(N)=S)cc1` (stereo not drawn) [Compound 3b], for which, in [2], the “Selectivity Index A549” value was found to be 1.0 and the IC50 was determined as 222.3 ± 0.09 µM. Besides, in [4], the midpoint of inhibition, the IC50, lay at 227.98 ± 0.04 µM. Besides, in assay [5], the “Selectivity Index HeLa” value came to 1.5 and the IC50 worked out at 150.1 ± 0.24 µM.

As for `CN(C)c1ccc(C2CC(c3cccc([N+](=O)[O-])c3)=NN2C(N)=S)cc1` (stereo not drawn) [Compound 3c], in assay [2], the “Selectivity Index A549” value was 1.1 and half-maximal inhibition (IC50) was put at 163.9 ± 0.07 µM. The IC50 in assay [4] came to 185.3 ± 0.21 µM. In [5], the “Selectivity Index HeLa” value was 1.4 and the IC50 was determined as 123.6 ± 0.2 µM.

Regarding `CN(C)c1ccc(C2CC(c3ccccc3Cl)=NN2C(N)=S)cc1` (stereo not drawn) [Compound 3d], in assay [2], the “Selectivity Index A549” value amounted to 1.8 and 118.7 ± 0.08 µM corresponded to half-maximal inhibition (IC50). The IC50 in assay [4] amounted to 217.03 ± 0.02 µM. Moreover, in assay [5], the “Selectivity Index HeLa” value was 14.46 and the concentration for half-maximal inhibition (IC50) worked out at 15 ± 0.46 µM.

As to `Cc1ccc(C2=NN(C(N)=S)C(c3ccc(N(C)C)cc3)C2)cc1` (stereo not drawn) [Compound 3e], the figures for the half-inhibitory concentration (IC50) in assay [2], in [4] and in assay [5] were 37.07 ± 0.14 µM, 244.64 ± 0.05 µM and 14.1 ± 0.4 µM, respectively. In assay [5], the “Selectivity Index HeLa” value was determined as 17.4.

Consider `CN(C)c1ccc(C2CC(c3ccc(Br)cc3)=NN2C(N)=S)cc1` (stereo not drawn) [Compound 3f], for which, in [2], the “Selectivity Index A549” value came out at 2.0 and the IC50 turned out to be 94.18 ± 0.11 µM. For the same compound, in [4], it took 194.33 ± 0.01 µM to reach half-maximal inhibition (IC50). In assay [5], the “Selectivity Index HeLa” value is recorded as 1.1 and the IC50 was 168.8 ± 0.36 µM.

For the compound `CN(C)c1ccc(C2CC(c3ccc(Cl)cc3)=NN2C(N)=O)cc1` (stereo not drawn) [Compound 3g], in [2], the “Selectivity Index A549” value was 0.4 and the IC50 amounted to 59.74 ± 0.18 µM. In [4], the IC50 is 26.94 ± 0.08 µM. Further, in [5], the “Selectivity Index HeLa” value worked out at 0.03 and 890.3 ± 0.22 µM corresponded to half-maximal inhibition (IC50).

With `CN(C)c1ccc(C2CC(c3cccc(Br)c3)=NN2C(N)=O)cc1` (stereo not drawn) [Compound 3h], in assay [2], the “Selectivity Index A549” value came out at 7.6 and the IC50 turned out to be 22.5 ± 0.25 µM. Moreover, in [3], the “IC50 DPPH radical scavenging” value turned out to be 0.215 ± 0.025 µg/mL (≈ 0.555 µM). In addition, the “cell death (sum of Q1+Q2+Q3)” value in the assay on A549 cells amounted to 20.60%. In assay [4], this compound returned a 50% inhibitory concentration (IC50) of 173 ± 10 µM. Moreover, in the assay with EB-DNA complex (Ct-DNA), the “Stern–Volmer constant KSV (EtBr displacement)” value was 1.69 × 10^4 M^–1. In [5], the “Selectivity Index HeLa” value was 7.1 and the IC50 worked out at 24.1 ± 0.86 µM. Also, in the assay on Ct-DNA [6], the “Stern–Volmer constant KSV (emission titration)” value is recorded as 4.28 × 10^3 M^–1. In addition, the “binding constant K (cyclic voltammetry)” value in the assay with Ct-DNA [7] is on record as 7.1 × 10^3.

Turning to `CN(C)c1ccc(C2CC(c3ccc([N+](=O)[O-])cc3)=NN2C(N)=O)cc1` (stereo not drawn) [Compound 3i], in [2], the “Selectivity Index A549” value is 0.9 and half-maximal inhibition (IC50) required 174.84 ± 0.05 µM. In assay [4], this compound had an IC50 of 165.84 ± 0.03 µM. In assay [5], the “Selectivity Index HeLa” value is given as 2.0 and the half-maximal inhibitory concentration (IC50) turned out to be 80.7 ± 0.28 µM.

Regarding `CN(C)c1ccc(C2CC(c3cccc4ccccc34)=NN2C(N)=S)cc1` (stereo not drawn) [Compound 3j], in [2], the “Selectivity Index A549” value is 0.5 and the half-inhibitory concentration (IC50) was found to be 290.09 ± 0.14 µM. Moreover, 166.75 ± 0.03 µM corresponded to half-maximal inhibition in assay [4] (IC50). In assay [5], the “Selectivity Index HeLa” value came to 0.8 and the IC50 worked out at 194.2 ± 0.44 µM.

Turning to `CN(C)c1ccc(C2CC(c3cccc4ccccc34)=NN2C(N)=O)cc1` (stereo not drawn) [Compound 3k], in [2], the “Selectivity Index A549” value was found to be 0.5 and the IC50 came out at 52.76 ± 0.28 µM. This compound also showed a half-maximal inhibitory concentration (IC50) in assay [4] of 27.52 ± 0.06 µM. Also, in [5], the “Selectivity Index HeLa” value turned out to be 0.2 and it took 96.46 ± 0.25 µM to reach half-maximal inhibition (IC50).

`CCN(CC)c1ccc(C2CC(c3ccc(Br)cc3)=NN2C(N)=S)cc1` (stereo not drawn) [Compound 3l]: in assay [2], the “Selectivity Index A549” value was 4.2 and the IC50 came out at 43.93 ± 0.13 µM. Also, in assay [4], the IC50 came out at 185.45 ± 0.14 µM. Further, in assay [5], the “Selectivity Index HeLa” value came out at 10.5 and half-maximal inhibition (IC50) was put at 17.7 ± 0.42 µM.
